Results reported in patent US10066238B2, “Methods for producing antibodies” (priority 2013, dated 2018).
Read-outs that look alike come from different tables or passages of the source.

Legend:
[1] = test system: SF162 pseudovirus (clade B); assay: HIV-1 neutralization assay (Env-pseudotyped virus, Luc reporter); assay type: cell-based
[2] = test system: SS1196.1 pseudovirus (clade B); assay: as above; assay type: cell-based
[3] = test system: Du156 pseudovirus (clade C); assay: as above; assay type: cell-based
[4] = test system: Q769.h5 pseudovirus (clade A); assay: as above; assay type: cell-based
[5] = biological target: recombinant hemagglutinin (HA) (A/New Caledonia/20/99); assay: SPR analysis of captured CR6261; assay type: binding, influenza H1N1; conditions: HA as analyte, bivalent analyte kinetics fit, read-out: equilibrium dissociation constant, KD
[6] = test system: Q769.h5 pseudovirus (clade A); conditions: reported by Wu et al. (16); cited from earlier work
[7] = test system: SF162 pseudovirus (clade B); conditions: reported by Wu et al. (16); cited from earlier work
[8] = test system: Du156 pseudovirus (clade C); conditions: reported by Wu et al. (16); cited from earlier work
[9] = biological target: FcγRI (Homo sapiens, UniProt P12314); assay: FcγRI binding in ELISA and in flow cytometry; conditions: data not shown
[10] = test system: HIV-1 BaL; conditions: topical gel formulation; CCR5-using HIV-1 BaL; Veselinovic, et al.; cited from earlier work
[11] = TZM-b1 cells, TFV concentration in combination, mean ± SEM, read-out: IC50 in a respective combination with VRC01p
[12] = TZM-b1 cells, TFV, mean ± SEM, read-out: IC50 when used individually
[13] = read-out: IC50 in a respective combination with VRC01p, TZM-b1 cells, GRFT, MVC concentration in combination, mean ± SEM
[14] = read-out: IC50 when used individually, TZM-b1 cells, GRFT, MVC, mean ± SEM
[15] = TZM-b1 cells, GRFT, MVC concentration in combination, mean ± SEM, read-out: IC50 in a respective combination with VRC01p
[16] = TZM-b1 cells, GRFT, MVC, mean ± SEM, read-out: IC50 when used individually

Chain of FcγRI (P12314 16-374, species assumed): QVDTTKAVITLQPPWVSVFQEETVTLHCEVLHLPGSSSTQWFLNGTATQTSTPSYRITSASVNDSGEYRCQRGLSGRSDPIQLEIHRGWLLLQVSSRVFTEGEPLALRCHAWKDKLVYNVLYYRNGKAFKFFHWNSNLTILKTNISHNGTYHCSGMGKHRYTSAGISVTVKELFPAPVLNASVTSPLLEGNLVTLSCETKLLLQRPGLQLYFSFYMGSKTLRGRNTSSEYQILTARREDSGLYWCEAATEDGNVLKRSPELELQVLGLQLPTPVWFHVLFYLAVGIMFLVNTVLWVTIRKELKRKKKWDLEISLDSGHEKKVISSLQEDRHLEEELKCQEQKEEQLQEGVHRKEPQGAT

## C[C@H](Cn1cnc2c(N)ncnc21)OCP(=O)(O)O [TFV, tenofovir]
[1]; [11]
  IC50: 880 ± 400 nM
[1]; [12]
  IC50: 2700 ± 1020 nM
[1]; mean ± SEM
  dose reduction index (DRI) in a respective combination with VRC01p: 2.10 ± 0.34
[2]; [11]
  IC50: 1920 ± 340 nM
[2]; [12]
  IC50: 7650 ± 2390 nM
[2]; mean ± SEM
  dose reduction index (DRI) in a respective combination with VRC01p: 3.76 ± 0.68
[3]; [11]
  IC50: 60 nM
[3]; [12]
  IC50: 7140 ± 1910 nM
[3]; mean ± SEM
  dose reduction index (DRI) in a respective combination with VRC01p: 3.01 ± 0.65
[4]; [11]
  IC50: 2090 ± 390 nM
[4]; [12]
  IC50: 21200 ± 3530 nM
[4]; mean ± SEM
  dose reduction index (DRI) in a respective combination with VRC01p: 8.40 ± 1.41

## CR6261: anti-influenza bnMAb CR6261 IgG1 (PDB ID: 3GBM) expressed in N. benthamiana
[5]
  Kd: 0.055 ± 0.0036 nM

## VRC01HEK: HEK293F cell-produced bnMAb VRC01
[6]
  VRC01HEK IC50: 0.084 mg/L
[7]
  VRC01HEK IC50: 0.139 mg/L
[8]
  VRC01HEK IC50: 0.089 mg/L

## maraviroc [MVC]
[1]; mean ± SEM
  dose reduction index (DRI) in a respective combination with VRC01p: 4.21 ± 0.25
[1]; [13]
  IC50: 18.3 ± 7.9 nM
[1]; [14]
  IC50: 54.9 ± 29.3 nM
[2]; mean ± SEM
  dose reduction index (DRI) in a respective combination with VRC01p: 5.06 ± 0.39
[2]; [13]
  IC50: 15.6 ± 8.87 nM
[2]; [14]
  IC50: 96.4 ± 28.5 nM
[3]; mean ± SEM
  dose reduction index (DRI) in a respective combination with VRC01p: 5.93 ± 0.96
[3]; [13]
  IC50: 32.2 ± 11.5 nM
[3]; [14]
  IC50: 199 ± 40.4 nM
[4]; mean ± SEM
  dose reduction index (DRI) in a respective combination with VRC01p: 4.40 ± 0.71
[4]; [13]
  IC50: 5.27 ± 1.12 nM
[4]; [14]
  IC50: 29.6 ± 7.75 nM

## VRC01p: Nicotiana plant-expressed anti-HIV-1 bnMAb VRC01 IgG1 from the L-(KP6pp)-H construct
[9]
  binding to FcγRI compared with a human IgG1 isotype control: nearly an order of magnitude less

## VRC01: CD4-binding site (CD4bs)-specific bnMAb isolated from a slowly progressing HIV-1 infected donor
[10]
  protection against vaginal challenge: protected

## griffithsin [GRFT]
[1]; [15]
  IC50: 0.1 ± 0.03 nM
[1]; [16]
  IC50: 0.59 ± 0.34 nM
[1]; mean ± SEM
  dose reduction index (DRI) in a respective combination with VRC01p: 3.19 ± 1.16
[2]; [15]
  IC50: 0.01 ± 0.001 nM
[2]; [16]
  IC50: 0.04 ± 0.01 nM
[2]; mean ± SEM
  dose reduction index (DRI) in a respective combination with VRC01p: 2.98 ± 0.72
[3]; [15]
  IC50: 0.003 ± 0.0004 nM
[3]; [16]
  IC50: 0.02 ± 0.001 nM
[3]; mean ± SEM
  dose reduction index (DRI) in a respective combination with VRC01p: 6.29 ± 0.66
[4]; [15]
  IC50: 0.79 ± 0.19 nM
[4]; [16]
  IC50: 12.4 ± 2.88 nM
[4]; mean ± SEM
  dose reduction index (DRI) in a respective combination with VRC01p: 11.3 ± 2.95
